Results as given in US10512627B2, “Anti-tumor compound and the medical use thereof” (Tianjin Medical University Cancer Institute and Hospital, priority 2014, dated 2019).
Where two headings read alike, the source gives them in different places.

Columns and labels:
[1] = tested on: MDA-MB-231 cells; test: MTT assay, synergistic effect with Paclitaxel (Example 12); format: cell-based, human; conditions: 20 μM, 24 or 48 h
Procedure: Synergistic effects of (S)2-(4′-methyl-3′-nitrobenzoylamino)-3-phenylpropionic acid and Paclitaxel was tested by MTT assay.
1) The MDA-MB-231 cells in logarithmic growth phase were seeded in the 96-well plate at a density of 4×10^3/0.2 ml. After culturing for 12 h, 10 μl Paclitaxel solution was added, with the final concentration of 0, 0.001, 0.01, 0.1, 1, 10, 50, 100, 200 μM, then 10 μL (S)2-(4′-methyl-3′-nitrobenzoylamino)-3-phenylpropionic acid PBS solution was add to half of the wells for each group with the final concentration of 20 μM, followed by continuous culturing for 24 or 48 h.
2) 5 mg/mL MTT solution was prepared with sterilized PBS, filtered with 0.22 μm film, and diluted with medium to 1 mg/mL. After discarding the medium in the 96-well plate, 100 μL 1 mg/mL MTT working solution was added, followed by continuous culturing for 5 h.
3) MTT working solution was discarded, and 150 μL DMSO was added per well (note: to away from light). The plate was shaken on a horizontal shaker at 170 rpm for 10 min, and then the absorbance at 490 nm was detected by microplate reader.

[2] = tested on: human breast cancer cell MDA-MB-231; test: Scratch assay, migration of MDA-MB-231 (Example 3); format: cell-based; conditions: 0.5, 1, 2, 4 μmol/L, 0-24 h
Procedure: The inhibiting ability of (S)2-(4′-methyl-3′-nitrobenzoylamino)-3-phenylpropionic acid for the migration of human breast cancer cell MDA-MB-231 was tested by scratch assay.
The MDA-MB-231 cells in logarithmic growth phase were plated in the 6-well plate with the density of 1×10^6/3 mL, and the drug was added after 12 h, with 100 μL per well. The final concentrations of (S)2-(4′-methyl-3′-nitrobenzoylamino)-3-phenylpropionic acid (TCI04) were 0.5, 1, 2, and 4 μmol/L, respectively. The negative control was 100 μL sterilized water with 2% DMSO and the positive control was 1 μmol/L 4-methyl-3-nitrobenzoic acid (TCI01). After 12 h, the culture medium was removed, and the plate was washed 3 times with PBS, and 3 ml culture medium without fetal bovine serum and 100 μL drug (concentration was the same as above) per well were added. 12 h later, 10 μL tips were used to scratch, and after washing 4 times with PBS, 3 ml culture medium without fetal bovine serum per well was added. The distance of cell migration was recorded every 3 h under the inverted microscope, and the photos were taken at 0 h and 24 h.

[3] = tested on: human breast cancer cell MDA-MB-231; test: Transwell invasion assay through Matrigel (Example 5); format: cell-based
Procedure: The inhibiting ability of (S)2-(4′-methyl-3′-nitrobenzoylamino)-3-phenylpropionic acid for the invasion of human breast cancer cell MDA-MB-231 was tested by Transwell invasion assay.
1) Gel placement into the Transwell chamber: Matrigel was melted under ice-bath of 4° C. overnight, and diluted with pre-cooled serum free DMEM medium at a ratio of 1:3. Transwell chamber was put in the 24-well plate, and 50 μL gel solution was added per chamber, stayed at 37° C. for 1 h, then 200 μL serum free DMEM medium was added and stayed for 15 min to make the gel reconstitute, and finally the medium was removed for stand-by;
2) MDA-MB-231 cells in logarithmic growth phase were plated in 6-well plate with the density of 1×10^6/3 mL, and after 12 h, the drug was added, with 100 μL per well. The final concentrations of (S)2-(4′-methyl-3′-nitrobenzoylamino)-3-phenylpropionic acid were 1, 2, and 4 μmol/L, respectively. The negative control was 100 μL sterilized water with 2% DMSO and the positive control was 1 μmol/L 4-methyl-3-nitrobenzoic acid. After 12 h, the medium was removed, followed by washing 3 times with PBS, and 3 ml medium without fetal bovine serum and 100 μL drug (concentration is as above) per well were added. […] The cell number was counted and the cells were seeded at the density of 2×10^5/200 μL into the Transwell chamber with the Matrigel. […]

[4] = tested on: 4T1-luciferase cells; test: In situ model of breast cancer in nude mouse, lung metastasis by in vivo imaging (Example 7); set-up: species or system nude mice; conditions: 20 mg/kg and 1 mg/kg tail vein, twice a day, 21 days; P<0.01
Procedure: 4) An in situ breast cancer model is constructed by in situ inoculating nude mice with 4T1 cells which are stably transfected with Luciferase, and the number of metastatic tumors on the lung is detected by in vivo imaging system. Such a model mimics the occurrence and metastasis of breast cancer.
The ability of (S)2-(4′-methyl-3′-nitrobenzoylamino)-3-phenylpropionic acid for inhibiting tumor metastasis in vivo was tested by in situ model of breast cancer in nude mouse.
1) Mice grouping: Nude female mice of SPF grade, 5 weeks old, 18˜22 g, 8 mice for each group;
2) The mother liquid of (S)2-(4′-methyl-3′-nitrobenzoylamino)-3-phenylpropionic acid (TCI04) for the dosage form administrated by intravenous injection was diluted to 2 mg/mL, 0.1 mg/mL by adding sterilized water. The dosage for administration in mice was as follows, high dosage of 20 mg/kg; low dosage of 1 mg/kg. […]
3) 4T1-luciferase cells in logarithmic growth phase were digested with 0.05% typsine for 1 min, after centrifugation at 1000 rpm for 5 min, the supernatant was discarded and the cells were resuspended and counted. […]
5) After the completion of the administration, the mice were detected by in vivo imaging system for the condition of tumor metastasis and immediately sacrificed; the lungs alone were detected by the in vivo imaging system for the light intensity to determine the number of tumor metastasis.

[5] = Mice acute toxicity assay, intravenous administration (Example 9); conditions: both sexes, Kunming, mouse, in vivo, Bliss algorithm
Procedure: The median lethal dose of (S)2-(4′-methyl-3′-nitrobenzoylamino)-3-phenylpropionic acid via intravenous administration was tested by mice acute toxicity assay.
1) Mice grouping, Kunming mice of clean grade, 10 weeks old, 30˜40 g body weight, 10 mice for each group, half male and half female.
2) 10 groups in total, concentration distance between groups was 0.88. Sterilized water was added to the mother liquid II for dosage form administrated by intravenous injection to formulate into the required concentration and 0.2 ml was intravenously injected for each mouse, following 14 days observation. The dosage of administration for each group and the death numbers were recorded as follows: […]

[6] = Solubility; format: physicochemical; conditions: dry ethanol, methanol, chloroform, dimethylformamide, dimethylsulfoxide

Cc1ccc(C(=O)N[C@@H](Cc2ccccc2)C(=O)O)cc1[N+](=O)[O-] [(S)2-(4′-methyl-3′-nitrobenzoylamino)-3-phenylpropionic acid]
synergistic effect with Paclitaxel [1]: strong synergistic effect
inhibition of migration ability (coalescence speed of cell scratch vs negative control) [2]: significantly inhibited
invaded cell number compared to the negative control ([3]; 1, 2, 4 μmol/L, 24 h, P<0.01): significantly less than the negative control
invaded cell number compared to the positive control (1 μmol/L 4-methyl-3-nitrobenzoic acid) ([3]; 2, 4 μmol/L, P>0.05): no significant difference
light intensity of the whole lung vs negative control [4]: significantly weaker than the negative control
LD50 at 14 days ([5]; read-out: LD50): 269 mg/kg
LD50 at 14 days ([5]; read-out: LD50 95% confidence limits): 249 to 291 mg/kg
solubility in organic solvents [6]: highly soluble
